In publication PMC10127606, “Salmonella Invasion Is Controlled by Competition among Intestinal Chemical Signals” (mBio, 2023):
Residue numbers refer to the chain shown, from its start. Read-outs that look alike come from different tables or passages of the source.

Tests used:
HilD-hilA complex = target: T1, HilD-hilA complex (Salmonella typhimurium, UniProt P0CL08); experiment: EMSA of HilD binding to hilA promoter DNA; settings: c2-HDA 20 μM, t2-HDA 40 μM, oleic acid 50 μM; no formic acid
T1 construct: made in house; host or cells: E. coli BL21(DE3), pET15b
T1 sequence (P0CL08 1-309): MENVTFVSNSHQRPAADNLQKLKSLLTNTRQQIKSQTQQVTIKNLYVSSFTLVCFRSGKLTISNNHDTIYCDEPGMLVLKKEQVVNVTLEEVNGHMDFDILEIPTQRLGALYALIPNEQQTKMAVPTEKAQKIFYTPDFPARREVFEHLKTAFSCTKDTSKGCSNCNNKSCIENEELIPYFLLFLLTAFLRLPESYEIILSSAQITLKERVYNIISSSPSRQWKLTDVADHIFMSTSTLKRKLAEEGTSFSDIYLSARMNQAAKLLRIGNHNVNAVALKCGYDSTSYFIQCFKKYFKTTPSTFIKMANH
Experimental: Assays were performed as previously described ([15], [16]). […] Various concentrations of the fatty acids (c2-HDA, 20 μM; t2-HDA, 40 μM; or oleic acid, 50 μM) or control solvents were added, and the reaction was incubated at room temperature for 1 h. Dye solution (10 mM Tris, 1 mM EDTA, 50% vol/vol glycerol, 0.001% wt/vol bromophenol blue) was added to a final concentration of 1×, and samples were separated on 7% acrylamide gels. DNA was stained using SYBR Safe and visualized in a Bio-Rad GelDoc imaging system.

HilD [1] = target: T2, HilD (Salmonella typhimurium, UniProt P0CL08); experiment: biochemical; type: binding; set-up: made in house; host or cells: E. coli BL21(DE3), pET15b
T2 sequence (P0CL08 1-309): T1 sequence (P0CL08 1-309)
Experimental: (§1) Assays were performed as previously described in detail in Chowdhury et al. ([15], [16]). Briefly, 96-well polystyrene plates coated with various concentrations of fatty acids in coating buffer (0.05 M sodium carbonate-bicarbonate, pH 9.3) were incubated overnight at 4°C. The wells were washed three times with PBS, followed by the addition of 200 μL blocking buffer (1% Ficoll 400 in PBS). […] The wells were washed, incubated with a 1:1,000 dilution of anti-His tag antibody, and incubated at room temperature for an hour. After washing, the wells were incubated with a 1:5,000 dilution of anti-mouse secondary antibody for an hour. Finally, the wells were washed three times with PBS-T (PBS plus 0.1% Tween 20), and 100 μL OPD (o-phenylenediamine) substrate was added. After color development, the reaction was ended with 1 N sulfuric acid and read spectrophotometrically at 490 nm. Data were analyzed in GraphPad Prism. Nonlinear regression was plotted, and one-site total binding was performed to calculate Kd values.
hilD alleles were cloned into pET15b(+), expressed, and purified as described in detail previously ([15]). Briefly, the pET15b-6XHis-hilD or pET15b-6XHis-hilD^Q290A or pET15b-6XHis-hilD^K293A plasmid was transformed into E. coli BL21(DE3) for expression. Transformants were induced with 5 mM IPTG (isopropyl β-D-1-thiogalactopyranoside) for 4 h. Cultures were centrifuged, lysed, treated with TALON beads, and applied to protein purification columns. Bound protein was eluted and confirmed by SDS-PAGE. Following confirmation, eluted samples were dialyzed overnight. The final protein concentration and quality after dialysis were assessed by Bradford estimation and SDS-PAGE.

HilD [2] = target: T2, HilD; type: cell-based; set-up: The stability of HilD in Salmonella carrying a chromosomal tetRA-hilD-3×FLAG tag; expressed in transfected cells; host or cells: Salmonella Typhimurium strain CA2446 (tetRA-hilD-3XFLAG attλ:pDX1::hilA'-lacZ)
Experimental: Assays were performed as previously described ([22]). Salmonella strains carrying a chromosomal tetracycline-inducible hilD with a C-terminal 3×FLAG tag and a hilA::lacZY fusion (for invasion gene expression assessment) were grown overnight in LB and then diluted 1:100 into LB buffered with 100 mM MOPS (pH 6.7) with 2.5 μg/mL tetracycline. […] After 1 h of incubation at 37°C with aeration, samples were collected to measure hilA::lacZY expression in a β-galactosidase assay. Individual cultures were then equilibrated to an OD600 of 1. New protein production was halted by adding an antibiotic combination (100 μg/mL rifampin, 200 μg/mL streptomycin, and 50 μg/mL spectinomycin). These cultures were incubated at 37°C with aeration, and 200-μL aliquots were collected every 30 min for 4 h. Samples were lysed in 5× Laemmli buffer, boiled, and immunoblotted with an anti-FLAG antibody to monitor HilD levels.

[3] = system: invasion gene hilA expression; experiment: hilA-luxCDABE transcriptional reporter luciferase assay; type: cell-based; settings: no formic acid preincubation; 500 nM c2-HDA, 40 μM oleic acid, 10 mM propionic acid
Experimental: Salmonella strains carrying luxCDABE reporter plasmids were grown overnight in 5 mL LB broth with appropriate antibiotics. These were subcultured (1:100) in M9 minimal medium with 0.2% glucose and antibiotics for 16 h. […] These were incubated for 3 h at 37°C in an incubator without aeration. Dimethyl sulfoxide (DMSO) or different concentrations of fatty acids were added to the reaction, and replicate aliquots were introduced into the BioTek Synergy H1 microplate reader. Luminescence and OD600 were recorded every half-hour for 24 h. Data were analyzed in GraphPad Prism. For every treatment, the area under the curve (AUC) was calculated. DMSO was normalized to 100%, and other reactions were calculated accordingly.

[4] = system: invasion gene sipC expression; experiment: sipC::lacZY reporter β-galactosidase assay; type: cell-based; settings: no formic acid preincubation; 10 μM c2-HDA, 40 μM oleic acid
Experimental: The β-galactosidase assay was performed using the method of Miller, as previously described in detail ([39]). Miller units were calculated using the following equation: Miller units = (OD420 × 1,000)/(OD600 × t × v), where t is the time (minutes) the reaction was allowed to continue before adding the stop solution, v is the volume of culture (mL) assayed, and OD420 and OD600 are the densities of the cultures at 420 and 600 nm, respectively. All reactions were performed in quadruplicates. Data were analyzed in Excel and plotted in GraphPad Prism.

HilD^K293A = target: T3, HilD^K293A (Salmonella typhimurium, UniProt P0CL08, K293A); experiment: ELISA binding of fatty acids to mutant HilD^K293A
T3 construct: made in house; host or cells: E. coli BL21(DE3), pET15b
T3 sequence (P0CL08 1-309 K293A): T1 sequence (P0CL08 1-309) with K293A
Experimental: as §1
(§2) hilD alleles were cloned into pET15b(+), expressed, and purified as described in detail previously ([15]). Briefly, the pET15b-6XHis-hilD or pET15b-6XHis-hilD^Q290A or pET15b-6XHis-hilD^K293A plasmid was transformed into E. coli BL21(DE3) for expression. […] The final protein concentration and quality after dialysis were assessed by Bradford estimation and SDS-PAGE.

HilD^Q290A = target: T4, HilD^Q290A (Salmonella typhimurium, UniProt P0CL08, Q290A); experiment: ELISA binding of fatty acids to mutant HilD^Q290A
T4 construct: made in house; host or cells: E. coli BL21(DE3), pET15b
T4 sequence (P0CL08 1-309 Q290A): T1 sequence (P0CL08 1-309) with Q290A
Experimental: as §1, §2

[5] = HilD preincubated with formic acid (500 μM), read-out: Kd
[6] = HilD without formic acid preincubation, read-out: Kd
[7] = Kd, HilD preincubated with formic acid (500 μM)
[8] = Kd, HilD without formic acid preincubation

Row | Structure (SMILES) | effect on HilD-hilA complex (HilD-hilA complex) | Kd (HilD [1]; [5]) | Kd (HilD [1]; [6]) | HilD half-life (HilD [2]; fatty acid 20 μM after preincubation with formic acid (10 mM)) | HilD half-life (HilD [2]; fatty acid 20 μM, no formic acid preincubation (DMSO control ~227 min)) | effect on hilA expression [3] | effect on sipC expression [4] | Kd (HilD [1]; [7]) | Kd (HilD [1]; [8]) | Kd (HilD^K293A) | Kd (HilD^Q290A)
1 | CCCCCCCCCCCCC/C=C/C(=O)O [t2-HDA] | disrupted the HilD-hilA complex | 177 µM | 15.8 µM | ~ 127 min | ~ 28 min |  |  |  |  |  | 
2 | CCC(=O)O [propionic acid] |  |  |  |  |  | severely repressed |  |  |  |  | 
3 | CCCCCCCC/C=C\CCCCCCCC(=O)O [oleic acid] | disrupted the HilD-hilA complex |  |  |  |  | severely repressed | repressed | 1370 µM | 136 µM | 119 µM | 
4 | CCCCCCCCCCCCCCCCC/C=C\C(=O)O [c2-EA] |  | 381 µM | 96.6 µM |  |  |  |  |  |  |  | 
5 | CCCCCCCCCCCCC/C=C\C(=O)O [c2-HDA, cis-2-hexadecenoic acid] | disrupted the HilD-hilA complex |  |  |  |  | drastically reduced hilA expression | repressed | 82 µM | 5.19 µM |  | 12.6 µM
